Publication PMC4859512, “Polyamino-Isoprenic Derivatives Block Intrinsic Resistance of P. aeruginosa to Doxycycline and Chloramphenicol In Vitro” (PLoS ONE, 2016)
“And” between values parts separate entries of the source, which are not always exact repeats. Equal values may be shown once.

Experiments:
[1] = system: outer membrane of P. aeruginosa PA01; experiment: Outer membrane permeation assay (nitrocefin hydrolysis)
Method: An overnight culture of PA01 was diluted 100-fold into 10 ml MHII broth containing 0.01 μg/ml of imipenem to induce a higher level of β-lactamases. […] Absorbance at 490 nm was monitored by spectrophotometry using an Infinite M200 microplate reader (Tecan) over 60 min. Experiments were performed in triplicate.

[2] = system: P. aeruginosa PA0-7H (Mex EF overproducer); experiment: Antibiotic susceptibility testing (broth micro-dilution MIC), strain PA0-7H; assay type: cell-based, Pseudomonas aeruginosa
[3] = system: cytoplasmic membrane of PA01; experiment: Inner membrane depolarization assay (Disc3(5) fluorescence); assay type: cell-based, Pseudomonas aeruginosa; conditions: PA01, Disc3(5) fluorescence
Method: Inner membrane depolarization assay
Cells were grown to a mid-
logarithmic phase, recovered by centrifugation (3000 X g for 20 min) and washed in 5 mM 4-(2-
hydroxyethyl)piperazine-1-ethanesulfonic acid (HEPES, pH 7.0) containing 10 mM EDTA. After 5
min incubation at room temperature, cells were recovered by centrifugation (3000 X g for 20
min), and resuspended in 5 mM HEPES (pH 7.0) containing 50 mM glucose, OD600 nm was
adjusted to 0.29. Five µl of a 160 µM suspension of [3,3’-Dipropylthiadicarbocyanine iodide]
(Disc3(5)) were added after 90 sec to 100 µl of a bacterial suspension, in a 96-well Greiner black
microplate, to reach 8 µM final concentration. After a 16.5 min incubation period allowing
incorporation of the dye into the polarized membrane, 10 µl of the appropriate compound
concentration were added. Fluorescence was monitored every 30 sec on an Infinite M200
microplate reader (Tecan; excitation wavelength 622nm and emission wavelength 690nm).
Assays were performed in two independent experiments and statistically significance was
assessed using a student’s t-test. A p-value ≤ 0.05 was considered significant.
(1 picture or pasted object on this page, not shown here)

[4] = system: P. aeruginosa PT629 (Mex AB overproducer); experiment: Antibiotic susceptibility testing (broth micro-dilution MIC), strain PT629; assay type: cell-based, Pseudomonas aeruginosa
[5] = system: P. aeruginosa PA01 reference strain; experiment: High-content screening in the presence of doxycycline; conditions: compound 10 μM, doxycycline 4 mg/L
Method: The screening was carried out in 96-well microtiter plates using MHBII, in a final volume of 200 μL. […] The bacterial inoculum of 5×10^5 CFU/mL was prepared from an overnight culture. In addition to the polyamino-isoprenic compounds, each plate contained PAßN, CCCP, CTAB, polymyxin-B and benzalkonium chloride as control molecules. Plates were incubated at 37°C under aerobic conditions for 18 hours. Plates were read at 600 nm on an Infinite M200 Pro plate reader (Tecan).
A series of 60 compounds, which were described [18], were tested at a concentration of 10 μM in combination with a sub-inhibitory concentration of doxycycline against the reference strain of P. aeruginosa PA01. In parallel, we evaluated the intrinsic antimicrobial activity of these compounds alone to allow the selection of only doxycycline adjuvants.

P. aeruginosa PA01 (wt) = experiment: Antibiotic susceptibility testing (broth micro-dilution MIC), strain PA01; assay type: cell-based, Pseudomonas aeruginosa
[6] = system: efflux of 1,2'-dinaphthylamine in strain PA01; experiment: Real-time efflux assay (1,2'-dinaphthylamine, glucose-triggered); assay type: cell-based, Pseudomonas aeruginosa
Method: The experiments were performed as previously described with slight modifications. For each strain, 20 mL of MHII was inoculated with a single colony from a fresh plate and grown at 37°C to the stationary phase. […] They were then loaded over night with the dye 1,2’-dinaphthylamine (TCI-Europe SA, Zwijndrecht, Belgium) at a final concentration of 32 μM, in the presence of 5 μM CCCP. […] In a 96-well Greiner black microplate (Greiner, Courtaboeuf, France), a gradient of inhibitor (when used) was prepared in PPB, and bacteria were added (100 μL per well). The fluorescence of the cell suspension, was monitored each 22 sec during 1200 sec on an Infinite M200 microplate reader (Tecan; excitation wavelength 370 nm and emission wavelength 420 nm). In order to trigger the transport, glucose (50 mM final concentration) is added at 200 sec. The maximum efficacy of the efflux is the difference between the value obtained without and with glucose addition after 1200 sec. For each compound, the efficiency of efflux inhibition is calculated as the difference between the maximum efficacy of transport and the residual transport obtained at various concentrations of the compound.

[7] = system: P. aeruginosa PA01 ERY^R (Mex CD overproducer); experiment: microbe, parasite or virus in culture; assay type: cell-based, Pseudomonas aeruginosa
[8] = system: P. aeruginosa CMZ091 (Mex XY overproducer); experiment: Antibiotic susceptibility testing (broth micro-dilution MIC), strain CMZ091; assay type: cell-based, Pseudomonas aeruginosa
[9] = Pseudomonas aeruginosa, read-out: Minimal Inhibitory Concentration

Q: With `CC(C)=CCCC(C)=CCCC(C)=CCNCCCNCCCCNCCCN` [Compound 3] as the molecule, how does the “outer membrane permeation efficacy” value ([1]; compound at 15.6μM, p value ≤ 0.05) read?
A: The value was “significantly identical to 31.25μM of PMBN”.

Q: And the “outer membrane permeation activity” value ([1]; compound at 31.25μM, relative to 250 μM polymyxin-B)?
A: Its value is 10%.

Q: What about the “decrease of MIC of ciprofloxacin” value ([2]; PA0-7H (overproduces MexEF), compound 10 µM) of the same molecule?
A: Its value is 4 times.

Q: And the “MIC of Amikacin in the presence of the compound” value (“MIC of Amikacin” below) ([2]; PA0-7H, compound 10µM)?
A: The value was 64 mg/L.

Q: What about the “MIC of Ceftazidime in the presence of the compound” value (“MIC of Ceftazidime” for short) ([2]; PA0-7H, compound 10µM) of the same molecule?
A: The value was 1 mg/L.

Q: And the “MIC of Ciprofloxacin in the presence of the compound” value ([2]; PA0-7H, compound 10µM)?
A: The value was 1 mg/L.

Q: What about the “MIC of Ticarcillin in the presence of the compound” value (“MIC of Ticarcillin” for short) ([2]; PA0-7H, compound 10µM) of the same molecule?
A: Its value is 4 mg/L.

Q: And the MIC [2, 9]?
A: The MIC was 25 µg/mL and 62.5 µM.

Q: What about the cytoplasmic membrane depolarization [3] of the same molecule?
A: Its cytoplasmic membrane depolarization is “dissipated the proton motive force”.

Q: What about the “MIC of Amikacin” value ([4]; PT629, compound 10µM) of the same molecule?
A: Its value is 64 mg/L.

Q: What about the “MIC of Ceftazidime” value ([4]; PT629, compound 10µM) of the same molecule?
A: The value was 8 mg/L.

Q: What about the “MIC of Ciprofloxacin in the presence of the compound” value ([4]; PT629, compound 10µM) of the same molecule?
A: Its value is 0.5 mg/L.

Q: And the “MIC of Ticarcillin” value ([4]; PT629, compound 10µM)?
A: Its value is 64 mg/L.

Q: And the MIC [4, 9]?
A: Its MIC is 25 µg/mL and 62.5 µM.

Q: What about the “bacterial growth in combination with doxycycline” value [5] of the same molecule?
A: The value was “completely abolished bacterial growth”.

Q: And the “MIC of Amikacin” value (P. aeruginosa PA01 (wt); PA01, compound 10µM)?
A: Its value is 64 mg/L.

Q: And the “MIC of Ceftazidime” value (P. aeruginosa PA01 (wt); PA01, compound 10µM)?
A: The value was 2 mg/L.

Q: And the “MIC of Ciprofloxacin in the presence of the compound” value (P. aeruginosa PA01 (wt); PA01, compound 10µM)?
A: The value was 0.125 mg/L.

Q: And the “MIC of Ticarcillin” value (P. aeruginosa PA01 (wt); PA01, compound 10µM)?
A: The value was 16 mg/L.

Q: And the MIC (P. aeruginosa PA01 (wt); [9])?
A: Its MIC is 25 µg/mL and 62.5 µM.

Q: What about the “rank of efflux inhibition among compounds 1-4 and PAßN” value [6] of the same molecule?
A: Its value is “the most efficient”.

Q: And the IC50 ([6]; Pseudomonas aeruginosa, 2.5x10^8 cfu/mL, read-out: concentration needed to inhibit 50% of 1,2'DNA efflux)?
A: The IC50 was 31.2 µM.

Q: What about the inhibition at 31.25 µM ([6]; Pseudomonas aeruginosa, compound at 31.25μM) of the same molecule?
A: The inhibition at 31.25 µM was 60%.

Q: And the efflux inhibition ([6]; compound at 15.6μM)?
A: Its efflux inhibition is “fifty percent efflux inhibition”.

Q: What about the efflux inhibition ([6]; compound at 125μM) of the same molecule?
A: The efflux inhibition was “completely abolished the transportation of dye”.

Q: What about the “MIC of Amikacin” value ([7]; PA01 ERY R, compound 10µM) of the same molecule?
A: The value was 32 mg/L.

Q: And the “MIC of Ceftazidime” value ([7]; PA01 ERY R, compound 10µM)?
A: The value was 2 mg/L.

Q: What about the “MIC of Ciprofloxacin in the presence of the compound” value ([7]; PA01 ERY R, compound 10µM) of the same molecule?
A: The value was 0.125 mg/L.

Q: And the “MIC of Ticarcillin” value ([7]; PA01 ERY R, compound 10µM)?
A: Its value is 16 mg/L.

Q: What about the MIC [7, 9] of the same molecule?
A: Its MIC is 25 µg/mL and 62.5 µM.

Q: And the “MIC of Amikacin” value ([8]; CMZ091, compound 10µM)?
A: The value was > 64 mg/L.

Q: What about the “MIC of Ceftazidime” value ([8]; CMZ091, compound 10µM) of the same molecule?
A: The value was 2 mg/L.

Q: What about the “MIC of Ciprofloxacin in the presence of the compound” value ([8]; CMZ091, compound 10µM) of the same molecule?
A: Its value is 0.25 mg/L.

Q: What about the “MIC of Ticarcillin” value ([8]; CMZ091, compound 10µM) of the same molecule?
A: The value was 8 mg/L.

Q: What about the MIC [8, 9] of the same molecule?
A: Its MIC is 25 µg/mL and 62.5 µM.
